Measurements: ChEMBL document CHEMBL5385917, “Irpetones A and B, Anti-Osteoclastic Heptaketides from a Marine Mesophotic Zone Ircinia Sponge-Associated Fungus Irpex sp. NBUF088” (J Nat Prod, 2024)
Calls of active or inactive are those of the source. The calls are words filed in the database; no cut-off is given here.

Tests used:
[1] = target: MAP kinase p38 (Mus musculus) (UniProt P47811+O08911+Q9WUI1+Q9Z1B7); assay: Inhibition of RANKL-induced p38 MAPK phosphorylation in mouse BMMC cells by Western blot analysis; format: cell-based; conditions: dose 0.5-1.5 µM
[2] = target: Mitogen-activated protein kinase 1 and 3 (ERK2 and ERK1) (Mus musculus) (UniProt P63085+Q63844); assay: Inhibition of RANKL-induced ERK1/2 phosphorylation in mouse BMMC cells by Western blot analysis; format: cell-based; conditions: dose 0.5-1.5 µM
Chain of Mitogen-activated protein kinase 1 and 3 (ERK2 and ERK1) (Mus musculus) (P63085 whole entry, looked up): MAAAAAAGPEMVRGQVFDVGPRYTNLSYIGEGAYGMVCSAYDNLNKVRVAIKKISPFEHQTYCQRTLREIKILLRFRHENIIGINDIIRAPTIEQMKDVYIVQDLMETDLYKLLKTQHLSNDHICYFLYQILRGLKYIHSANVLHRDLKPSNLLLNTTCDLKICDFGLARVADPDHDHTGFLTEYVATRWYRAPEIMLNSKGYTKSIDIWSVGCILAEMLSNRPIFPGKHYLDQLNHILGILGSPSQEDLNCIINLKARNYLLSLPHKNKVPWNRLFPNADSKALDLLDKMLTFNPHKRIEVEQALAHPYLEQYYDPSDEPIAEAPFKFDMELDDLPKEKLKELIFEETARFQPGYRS
Chain of Mitogen-activated protein kinase 1 and 3 (ERK2 and ERK1) (Mus musculus) (Q63844 whole entry, looked up): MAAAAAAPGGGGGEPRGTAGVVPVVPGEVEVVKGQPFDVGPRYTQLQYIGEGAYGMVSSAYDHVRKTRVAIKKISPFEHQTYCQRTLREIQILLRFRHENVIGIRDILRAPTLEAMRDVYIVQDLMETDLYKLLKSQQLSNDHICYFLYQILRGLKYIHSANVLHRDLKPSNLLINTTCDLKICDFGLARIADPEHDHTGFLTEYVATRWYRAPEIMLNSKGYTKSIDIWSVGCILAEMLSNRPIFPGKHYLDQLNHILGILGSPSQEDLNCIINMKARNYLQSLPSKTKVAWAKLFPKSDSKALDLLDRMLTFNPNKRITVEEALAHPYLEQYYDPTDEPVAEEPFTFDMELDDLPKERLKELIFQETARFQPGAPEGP

[3] = Cytotoxicity against mouse BMMC cells assessed as inhibition of cell growth incubated for 48 hrs by MTT assay; format: toxicity, cell-based
[4] = system: BMMC; assay: Inhibition of RANKL-induced JNK1/2 phosphorylation in mouse BMMC cells by Western blot analysis; format: cell-based; conditions: dose 0.5-1.5 µM
[5] = system: BMMC; assay: Anti-osteoclastogenic activity in mouse BMMC cells assessed as inhibition of RANKL mediated osteoclast differentiation by TRAP activity; format: functional, cell-based
[6] = system: BMMC; assay: Inhibition of RANKL-induced NFkappaB signaling in mouse BMMC cells assessed as inhibition of NFkappab nuclear translocation at 5 to 10 uM by Western blot analysis; format: cell-based; conditions: dose 5-10 µM
[7] = Selectivity index, ratio of CC50 for cytotoxicity against mouse BMMC cells to IC50 for anti-osteoclastogenic activity in mouse BMMC cells; format: toxicity, cell-based; conditions: read-out: Ratio CC50/IC50

- inhibition [1]: Dose-Dependent Effect
- inhibition [2]: Dose-Dependent Effect
SMILES: C[C@@H]1C=C2C=C[C@@](C)(O)[C@]3(C)C(=O)[C@@](O)(CO)O[C@@H](C1)[C@@H]23
- CC50 at 48 h [3]: > 30 µM
- inhibition [4]: Dose-Dependent Effect
- IC50 [5]: 6.3 µM
- inhibition [6]: Active
- selectivity ratio [7]: > 4.8
